System: remaining 398 kinases
Experiment: SelectScreen Broad Assay Panel, summary
Assay type: biochemical
Conditions: 1 µM
Method: The in vitro kinase selectivity of NU5455 was determined using the SelectScreen Broad Assay Panel (Thermo Fisher Scientific) involving activity and binding assays (Supplemental Table 1). […] Class IA PI3Ks were measured using the p85α subunit.
Kinase [ATP] % Assay Kinase [ATP] % Assay Kinase [ATP] % Assay Kinase [ATP] % Assay
DNA-PK Km app 98.3 Z LATS2 n/a 4.7 L KIT D820E n/a 1.3 L GSK3B (GSK3 beta) Km app -2.5 Z
PIK3C3 (hVPS34) Km app 85.9 A PRKCZ (PKC zeta) Km app 4.7 Z GRK1 n/a 1.3 L BMPR2 n/a -2.5 L
PIK3C2B (PI3K-C2 beta) 10 28.9 A FGFR1 Km app 4.7 Z BRSK2 n/a 1.2 L CDC42 BPB (MRCKB) Km app -2.5 Z
SNF1LK2 Km app 26.6 Z MINK1 Km app 4.6 Z NUAK1 (ARK5) Km app 1.2 A AMPK (A2/B2/G2) n/a -2.6 L
HCK Km app 18.0 Z CSF1R (FMS) Km app 4.3 Z CDK9/cyclin K n/a 1.0 L PRKG1 Km app -2.7 Z
NEK2 Km app 17.8 Z CSNK1G3 (CK1 gamma 3) Km app 4.2 Z NUAK2 n/a 1.0 L KIT T670E n/a -2.8 L
ALK Km app 17.3 Z STK32C (YANK3) n/a 4.2 L CDK2/cyclin O n/a 0.9 L ERBB4 (HER4) Km app -2.8 Z
FGFR3 K650M n/a 16.5 L STK22D (TSSK1) Km app 4.2 Z CAMKK2 (CaMKK beta) n/a 0.9 L PLK4 n/a -2.8 L
SIK3 n/a 16.1 L TAOK3 (JIK) n/a 4.2 L FGFR3 Km app 0.9 Z GRK7 Km app -3.0 Z
LYN A Km app 15.2 Z RPS6KA4 (MSK2) Km app 4.2 Z ULK2 n/a 0.9 L MAPKAPK2 Km app -3.1 Z
BMPR1B (ALK6) n/a 14.5 L PTK2B (FAK2) Km app 4.2 Z KIT D816V n/a 0.9 L FGFR4 Km app -3.1 Z
INSRR (IRR) Km app 14.1 Z CLK2 Km app 4.1 Z CAMK1 (CaMK1) 10 0.8 A CASK n/a -3.1 L […]

`CN(C(=O)CN1CCOCC1)c1ccc2sc3c(-c4cccc5c(=O)cc(N6CC7CCC(C6)O7)oc45)cccc3c2c1` [NU5455] was tested, and the “inhibition in the majority of the remaining 398 kinases” value was “less than 10%”.

— publication PMC6934184, “Selective DNA-PKcs inhibition extends the therapeutic index of localized radiotherapy and chemotherapy” (The Journal of Clinical Investigation, 2019)
